Article PMC12030000 (Pharmaceuticals, 2025)

Tested on: ALS patient-derived iMNs (C9orf72 pathology)
Experiment: iPSC-derived motor neuron (iMN) survival assay with neurotrophic factor withdrawal
Type: cell-based, human
Details: for Median survival time of treated ALS iMNs: ALS patient-derived iMNs, 14-day period; for Surviving iMNs (cell count): 300 tracked ALS iMNs on day 0
Protocol: In this study, iPSC-derived iMNs were generated from PALS (C9orf72 pathology) and from healthy donors' PBMCs. Neuronal survival rate was compared between PrimeC's components, their combination, and the relevant DMSO vehicle reference as described in Figure 2A-C. […] form between days 13 and 16 after transduction of iMN factors. The iMN survival assay was initiated on day 17. Starting at Day 17, longitudinal tracking of iMNs was performed using Molecular Devices ImageExpress once every other day for 16 days. Tracking of neuronal survival was performed using ImageJ version 1.53t. Neurons were scored as dead when their soma was no longer detectable by RFP fluorescence. iMN survival experiments included neurotrophic factor withdrawal in order to exacerbate the survival difference between control and PALS' iMNs. Neurotrophic factor withdrawal of FGF-2, BDNF, GDNF, and CNTF from the culture medium was performed on day 17. For treatment with drugs, cultures were treated with DMSO or a drug after neurotrophic factor withdrawal (starting at day 17). Treatment with fresh media containing vehicle or drugs occurred every 3 days for 16 days. […] Control cell lines of non-neurological subjects (i.e., neurologically healthy controls) were used in the comparisons. […] A hazard ratio was calculated for each of the comparisons as the likelihood of neuron death when treated with the indicated compound divided by the likelihood of neuron death when treated with another indicated compound. The lower the ratio, the […] it is for a cell to die when treated with the second compound compared to being treated with the first compound in each comparison above, and vice versa. Analysis utilized GraphPad Prism version 10.0.2 GraphPad. […] Kaplan-Meier plots were generated using iMNs obtained from each treatment condition in replicates of three. Confirmation of iMN survival times was analyzed by manual longitudinal tracking.

[1] = day 16, day 16 excluded from survival analyses

Row | SMILES | Median survival time of treated ALS iMNs | Surviving iMNs (cell count) (day 2) | Surviving iMNs (cell count) (day 4) | Surviving iMNs (cell count) (day 6) | Surviving iMNs (cell count) (day 8) | Surviving iMNs (cell count) (day 10) | Surviving iMNs (cell count) (day 12) | Surviving iMNs (cell count) (day 14) | Surviving iMNs (cell count) [1]
1 | Cc1ccc(-c2cc(C(F)(F)F)nn2-c2ccc(S(N)(=O)=O)cc2)cc1 [Celecoxib, celecoxib] | 8 days | 300 | 272 | 227 | 190 | 139 | 104 | 79 | 55
2 | O=C(O)c1cn(C2CC2)c2cc(N3CCNCC3)c(F)cc2c1=O [Ciprofloxacin, ciprofloxacin] | 8 days | 300 | 262 | 238 | 210 | 177 | 146 | 118 | 74
